Data on five compounds can be found in US6153429A (priority 1997, dated 2000).

Molecules are shown by their SMILES.

The first series in a line: in vitro. Conditions: mouse, c3h/10t1/2 t1 cells.
As for `c1ccc2c(c1)cc1ccc3cccc4ccc2c1c34` [Benzo[a]pyrene, benzo[a]pyrene], the fold induction (usually the ratio of treated to control signal) at 504 h was 1.15.

`CC/C(=C(/CC)c1ccc(O)cc1)c1ccc(O)cc1` [Diethylstilbestroel, diethylstilbestroel] returned a fold induction at 504 h of 1.12.

Take `C=C(C)C12OC3(c4ccccc4)OC1C1C4OC4(CO)C(O)C4(O)C(=O)C(C)=CC4C1(O3)C(C)C2OC(=O)/C=C/C=C/c1ccccc1` (stereo not drawn) [Mezerein, mezerein]: the fold induction at 504 h is 2. `Cn1c(=O)c2c(ncn2C)n(C)c1=O` [caffeine]: the fold induction at 504 h turned out to be 1. `C1CCOC1` [tetrahydrofuran] registered a fold induction at 504 h of 1.

Assay in the next series: not given
Conditions: background statement, chemicals identified by IARC; cited from earlier work.
With `CC/C(=C(/CC)c1ccc(O)cc1)c1ccc(O)cc1` [Diethylstilbestroel, diethylstilbestroel], the mutagenicity result was “only weakly mutagenic”.
